What all share (assay type): biochemical
The test system of data set [1] is superoxide, formed in a xanthine-xanthine oxidase system. As to the kind of experiment: Active oxygen eliminating activity of powdery carrot compositions with saccharides before and after storage, nitro blue tetrazolium (NBT) test (Experiment 3). To be noted: for Activity (unit/g) After storage / Percentage of residual activity (%) / Activity (unit/g) Before storage: powdery carrot composition; for Activity (unit/g) After storage / Percentage of residual activity (%): saccharide added at 10% d.s.b., stored at 40° C. for seven days; for Activity (unit/g) Before storage: saccharide added to disrupted carrots at 10% d.s.b.; for residual percentage / reduction inhibitory activity for active oxygen eliminating activity among the saccharides tested: powdery carrot compositions, 40° C. seven days, in words. The method, then:
Fresh raw carrots were disrupted by a mixer, and saccharides were respectively added to the mixture and dissolved therein to give a concentration of 10%, d.s.b. The solutions were dried under a reduced pressure at 40° C. for two days, dried in vacuo at the same temperature for 24 hours, and pulverized by a mixer into powdery carrot compositions. […] An about 100 g each of the compositions was placed and sealed in a 500-ml polystyrene container, and stored at 40° C. for seven days. The active oxygen eliminating activities of the compositions before and after storage were compared with each other. The active oxygen eliminating activity was assayed by the nitro blue tetrazolium (NBT) test by Toshio IMANARI et al. in Igakuno Ayumi, Vol. 101, pp. 496-497 (1977), and the level of superoxide, formed in a xanthine-xanthine oxidase system, was assayed by quantifying calorimetrically the content of formazan formed by reducing NBT. As a control, refined water was used as a test solution. One unit activity of active oxygen eliminating activity was defined as that inhibited 50% formazan formation as compared with the control. […] Thus cyclotetrasaccharide is preferable as an effective ingredient for a reduction inhibitory agent for active oxygen eliminating activity.

Data set [2] has as its system active oxygen. The data set can be described thus: Active oxygen eliminating activity of superoxide dismutase and antioxidants in cyclotetrasaccharide solution or water before and after storage (Experiment 7). To be noted: for Activity (unit/mg antioxidant) After one storage / Residual activity (%): dark; for Activity (unit/mg antioxidant) Before storage: superoxide dismutase 5 μg/ml, α-glucosyl hesperidin and α-glucosyl rutin 10 mg/ml, catechin 50 μg/ml. As to the method: In one milliliter of 30% (w/v) cyclotetrasaccharide solution, which is prepared by using cyclotetrasaccharide obtained in Experiment 2, was dissolved five micrograms (μ g) of superoxide dismutase from a horseradish commercialized by Sigma Chemical Co., St. Louis, USA, 10 mg of α-glucosyl hesperidin commercialized by Hayashibara Biochemical Laboratories, Inc., Okayama Japan, 10 mg of α-glucosyl rutin commercialized by Hayashibara Biochemical Laboratories, Inc., Okayama, Japan, 250 μg of gallic acid commercialized by Wako Pure Chemical Industries, Ltd., Tokyo, Japan, or 50 μg of catechin to obtain a liquid composition. Each of the compositions was placed in a glass test tube, sealed with a rubber cap, and stored under a dark condition. As a control, water was used in place of the cyclotetrasaccharide solution.

The test system of data set [3] is superoxide, formed in a hypoxanthine-xanthine oxidase system. The data set can be described thus: Active oxygen eliminating activity of powdery carrot compositions with saccharides before and after storage, electron spin resonance (ESR) test (Experiment 4). Conditions: powdery carrot composition. The method, then: Fresh raw carrots were disrupted as Experiment 3, and saccharides were respectively added to the mixture and dissolved therein to give a concentration of 10%, d.s.b. The solutions were dried under a reduced pressure at 40° C. for one day, dried in vacuo at the same temperature for 17 hours, and pulverized by a mixer into powdery carrot compositions. […] About 100 g each of the compositions was placed and sealed in a 500-ml polystyrene container, and stored at 40° C. for seven or fourteen days. The active oxygen eliminating activities of the compositions before and after storage were compared with each other. The active oxygen eliminating activity was assayed by the electron spin resonance (ESR) test by Toshihiko OZAWA in BUNSEKI, Vol. 2, pp. 68-74 (2000), and the level of superoxide, formed in a hypoxanthine-xanthine oxidase system, was assayed by the spin-trapping with 5,5-dimethyl-1-pyrroline-N-oxide in ESR.

The mark [4] stands for this setting: cyclotetrasaccharide 0% (water), 80° C. 5 days, α-glucosyl hesperidin, α-glucosyl rutin 10 mg/ml, gallic acid 250 μg/ml.
Where [5] appears, read: cyclotetrasaccharide 30%, 80° C. 5 days, α-glucosyl hesperidin, α-glucosyl rutin 10 mg/ml, gallic acid 250 μg/ml.
[6] abbreviates: cyclotetrasaccharide concentration 0% (water), gallic acid 250 μg/ml.
Where [7] appears, read: cyclotetrasaccharide concentration 30%, gallic acid 250 μg/ml.
Setting [8] is: cyclotetrasaccharide 0% (water), 60° C. 17 hours, 5 μg/ml.
The mark [9] stands for this setting: cyclotetrasaccharide 30%, 60° C. 17 hours, 5 μg/ml.
Setting [10] is: cyclotetrasaccharide 0% (water), 25° C. 20 hours, 50 μg/ml.
Where [11] appears, read: cyclotetrasaccharide 30%, 25° C. 20 hours, 50 μg/ml.

Consider pullulan, for which, in data set [1], the “Activity (unit/g) After storage” value is 360 unit/g, the “Percentage of residual activity (%)” value turned out to be 51%, the “Activity (unit/g) Before storage” value is given as 710 unit/g and the “residual percentage / reduction inhibitory activity for active oxygen eliminating activity among the saccharides tested” value is given as “relatively-high reduction inhibitory activity”.

Regarding `O=C(O)c1cc(O)c(O)c(O)c1` [Gallic acid, gallic acid], the figures for the “Activity (unit/mg antioxidant) After one storage” value in data set [2] (setting [4]) and in data set [2] (setting [5]) were 390 unit/mg antioxidant and 450 unit/mg antioxidant, respectively. Besides, the “Residual activity (%)” value in data set [2] (setting [4]) turned out to be 66%; in data set [2] (setting [5]), 75%. The “Activity (unit/mg antioxidant) Before storage” value in data set [2] (setting [6]) is recorded as 590 unit/mg antioxidant; in data set [2] (setting [7]), 600 unit/mg antioxidant.

As for Superoxide dismutase, the results for the “Activity (unit/mg antioxidant) After one storage” value in data set [2] (setting [8]) and in data set [2] (setting [9]) were 4,600 unit/mg antioxidant and 7,300 unit/mg antioxidant, respectively. The “Residual activity (%)” value in data set [2] (setting [8]) is 46%; in data set [2] (setting [9]), 61%. For the same compound, the “Activity (unit/mg antioxidant) Before storage” value in data set [2] (setting [6]) is given as 10,000 unit/mg antioxidant; in data set [2] (setting [7]) it was 12,000 unit/mg antioxidant.

Turning to `OC[C@H]1O[C@H](O[C@H]2[C@H](O)[C@@H](O)C(O)O[C@@H]2CO)[C@H](O)[C@@H](O)[C@@H]1O` (mixture of isomers) [Maltose, maltose], in data set [1], the “Activity (unit/g) After storage” value came out at 180 unit/g, the “Percentage of residual activity (%)” value worked out at 33% and the “Activity (unit/g) Before storage” value turned out to be 550 unit/g. Besides, in data set [3] (saccharide added at 10% d.s.b., before storage), the “Activity (unit/g) Before storage” value was 236 unit/g. The “Activity (unit/g) After two weeks storage” value in data set [3] (stored at 40° C. for fourteen days) is listed as 53 unit/g. In addition, the “percentage of residual activity After two weeks storage” value in data set [3] (stored at 40° C. for fourteen days, numerals in parentheses) turned out to be 22%. The “Activity (unit/g) After one week storage” value in data set [3] (stored at 40° C. for seven days) is reported as 56 unit/g. Besides, in data set [3] (stored at 40° C. for seven days, numerals in parentheses), the “percentage of residual activity After one week storage” value is given as 24%.

Regarding `OCC1OC2OCC3O[C@H](O[C@H]4C(O)C(CO)OC(OCC5O[C@H](O[C@@H](C1O)C2O)C(O)C(O)[C@@H]5O)C4O)C(O)C(O)[C@@H]3O` (some centres unmarked) [crystalline cyclotetrasaccharide hydrate], the “change of the active oxygen eliminating activity on storage of a powder mixture” value in data set [2] (powdery crystalline cyclotetrasaccharide hydrate mixed dry with either of the powdery antioxidants, storage test as in Table 5) is on record as “almost no change of the active oxygen eliminating activity”.

As to α-glucosyl rutin, the “Activity (unit/mg antioxidant) After one storage” value in data set [2] (setting [4]) was 18 unit/mg antioxidant; in data set [2] (setting [5]) it was 22 unit/mg antioxidant. The results for the “Residual activity (%)” value in data set [2] (setting [4]) and in data set [2] (setting [5]) were 72% and 85%, respectively. Moreover, the “Activity (unit/mg antioxidant) Before storage” value in data set [2] (setting [6]) was found to be 25 unit/mg antioxidant; in data set [2] (setting [7]) it was 26 unit/mg antioxidant.

For `OC[C@@H](O)[C@@H](O)[C@H](O)[C@@H](O)CO` [Sorbitol, sorbitol], in data set [1], the “Activity (unit/g) After storage” value is listed as 26 unit/g, the “Percentage of residual activity (%)” value stood at 5% and the “Activity (unit/g) Before storage” value came out at 560 unit/g.

As to α-glucosyl hesperidin, the entries for the “Activity (unit/mg antioxidant) After one storage” value in data set [2] (setting [4]) and in data set [2] (setting [5]) were 1.0 unit/mg antioxidant and 2.1 unit/mg antioxidant, respectively. The results for the “Residual activity (%)” value in data set [2] (setting [4]) and in data set [2] (setting [5]) were 26% and 53%, respectively. Also, the “Activity (unit/mg antioxidant) Before storage” value in data set [2] (setting [6]) was 3.8 unit/mg antioxidant; in data set [2] (setting [7]), 4.0 unit/mg antioxidant.

On to `OC[C@H]1O[C@H](O[C@H]2O[C@H](CO)[C@@H](O)[C@H](O)[C@H]2O)[C@H](O)[C@@H](O)[C@@H]1O` [Trehalose, trehalose], for which, in data set [1], the “Activity (unit/g) After storage” value worked out at 380 unit/g, the “Percentage of residual activity (%)” value worked out at 66%, the “Activity (unit/g) Before storage” value is reported as 580 unit/g and the “residual percentage / reduction inhibitory activity for active oxygen eliminating activity among the saccharides tested” value is listed as “highest residual percentage”.

For the compound catechin, the figures for the “Activity (unit/mg antioxidant) After one storage” value in data set [2] (setting [10]) and in data set [2] (setting [11]) were 2.2 unit/mg antioxidant and 240 unit/mg antioxidant, respectively. For the same compound, the “Residual activity (%)” value was found to be 0% in data set [2] (setting [10]) and 53% in data set [2] (setting [11]). In addition, the “Activity (unit/mg antioxidant) Before storage” value amounted to 470 unit/mg antioxidant in data set [2] (setting [6]) and 450 unit/mg antioxidant in data set [2] (setting [7]).

As for `OC[C@H]1O[C@@](CO)(O[C@H]2O[C@H](CO)[C@@H](O)[C@H](O)[C@H]2O)[C@@H](O)[C@@H]1O` [Sucrose, sucrose], in data set [1], the “Activity (unit/g) After storage” value worked out at 180 unit/g, the “Percentage of residual activity (%)” value was 27% and the “Activity (unit/g) Before storage” value is 660 unit/g.

`OC[C@@H](O)[C@@H](O)[C@H](O)[C@H](O)CO` [Mannitol, mannitol]: in data set [1], the “Activity (unit/g) After storage” value is listed as 59 unit/g, the “Percentage of residual activity (%)” value is reported as 11% and the “Activity (unit/g) Before storage” value is on record as 520 unit/g.
